Key:
[1] = molecular target: T1, SoxS (Escherichia coli, UniProt P0A9E2); experiment: Chemiluminescence-based SoxS-DNA binding assay; design: made in house; species or system E. coli; conditions: read-out: % Inhibition (SoxS binding to DNA)
T1 sequence (P0A9E2 1-107): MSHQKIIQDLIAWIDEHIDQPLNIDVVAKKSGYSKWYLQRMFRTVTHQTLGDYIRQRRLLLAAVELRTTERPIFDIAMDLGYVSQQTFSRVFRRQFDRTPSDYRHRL

[2] = system: Y. pseudotuberculosis; experiment: microbe, parasite or virus in culture; conditions: Yersinia pseudotuberculosis, J774, read-out: % Cytotoxicity
[3] = molecular target: T2, ExsA (Pseudomonas aeruginosa, UniProt P26993); experiment: Chemiluminescence-based ExsA-DNA binding assay; design: species or system P. aeruginosa; conditions: Table 7, cell-free system; read-out: ExsA EC50
T2 construct: made in house
T2 sequence (P26993 1-278): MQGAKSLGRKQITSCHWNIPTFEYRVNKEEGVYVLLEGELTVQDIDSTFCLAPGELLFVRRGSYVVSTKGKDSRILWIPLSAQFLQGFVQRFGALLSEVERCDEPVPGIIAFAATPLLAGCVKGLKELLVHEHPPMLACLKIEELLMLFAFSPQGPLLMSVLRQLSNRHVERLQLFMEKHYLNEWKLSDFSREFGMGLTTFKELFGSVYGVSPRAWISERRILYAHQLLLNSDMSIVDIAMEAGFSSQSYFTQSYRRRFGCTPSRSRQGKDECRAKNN

[4] = system: P. aeruginosa; experiment: P. aeruginosa cytotoxicity whole cell assay (J774 cells, LDH release); conditions: relative to vehicle treated cells infected with wild type P. aeruginosa
[5] = molecular target: LcrF (VirF) (Yersinia pestis, UniProt P28808); experiment: biochemical; assay type: binding, Y. pseudotuberculosis; conditions: EC50 for inhibition of LcrF(VirF)-DNA binding
Chain of LcrF (VirF) (P28808 whole entry, looked up): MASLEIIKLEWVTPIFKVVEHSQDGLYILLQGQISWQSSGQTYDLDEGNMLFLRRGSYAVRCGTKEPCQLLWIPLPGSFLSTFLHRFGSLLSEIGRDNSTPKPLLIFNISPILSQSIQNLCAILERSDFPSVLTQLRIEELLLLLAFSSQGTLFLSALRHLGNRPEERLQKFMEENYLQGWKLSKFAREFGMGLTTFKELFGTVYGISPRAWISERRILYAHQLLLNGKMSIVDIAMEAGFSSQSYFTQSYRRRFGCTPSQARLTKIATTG

SMILES	inhibition at 50 µg/mL [1]	activity at 50 µg/mL [2]	EC50 [3]	Cytotoxicity at 50 μg/mL Pseudomonas [4]	EC50 [5]
O=C(O)CCn1c(-c2ccccc2)nc2ccc([N+](=O)[O-])cc21 [AO]	< 0%				
CCOC(=O)COn1c(-c2ccccc2)nc2ccc([N+](=O)[O-])cc21 [AP]	< 0%				
O=C(O)COn1c(-c2ccccc2)nc2ccccc21 [AQ]	0 to 29%				
CCCOn1c(-c2ccccc2)nc2ccc([N+](=O)[O-])cc21 [AR]	< 0%				
O=[N+]([O-])c1ccc2nc(-c3ccccc3)n(OCCO)c2c1 [AS]	< 0%				
On1c(-c2ccccc2)nc2ccccc21 [AT]	< 0%				
COc1ccc(-c2nc3ccc([N+](=O)[O-])cc3n2O)cc1 [AV]	0 to 29%				
CC(=O)c1ccc2nc(-c3ccccc3)n(O)c2c1 [AW]	30 to 69%				
On1c(-c2ccccc2)nc2ccc(C(F)(F)F)cc21 [AX]	0 to 29%				
On1c(-c2ccccc2)nc2ccc(F)cc21 [AY]	0 to 29%				
COc1ccc2nc(-c3ccccc3)n(O)c2c1 [AZ]	< 0%				
O=C(O)c1ccc2nc(-c3ccccc3)n(O)c2c1 [BA]	0 to 29%				
N#Cc1ccc2nc(-c3ccccc3)n(O)c2c1 [BC]	30 to 69%				
N#CCOn1c(-c2ccccc2)nc2ccc([N+](=O)[O-])cc21 [BD]	0 to 29%				
NCCOn1c(-c2ccccc2)nc2ccc([N+](=O)[O-])cc21 [BE]	< 0%				
N#Cc1ccc2nc(-c3ccc(NC(=O)/C=C/c4ccccc4)cc3)n(O)c2c1 [CL]		< 75%	10 to 25 µM	* (reduced P. aeruginosa cytotoxicity to 99-75% of untreated, wild type levels at 50 mg/mL)	10 to 25 µM
N#Cc1ccc2nc(-c3ccc(NC(=O)c4ccc(F)cc4)cc3)n(O)c2c1 [CV]		< 75%	10 to 25 µM	* (reduced P. aeruginosa cytotoxicity to 99-75% of untreated, wild type levels at 50 mg/mL)	> 25 µM
O=C(Nc1ccc(-c2nc3ccc([N+](=O)[O-])cc3n2O)cc1)c1ccc(F)c(F)c1 [DA]		< 75%	10 to 25 µM	* (reduced P. aeruginosa cytotoxicity to 99-75% of untreated, wild type levels at 50 mg/mL)	10 to 25 µM
O=C(Nc1ccc(-c2nc3ccc([N+](=O)[O-])cc3n2O)cc1)c1ccc(-c2cncnc2)cc1 [DC]		75 to 99%	10 to 25 µM	* (reduced P. aeruginosa cytotoxicity to 99-75% of untreated, wild type levels at 50 mg/mL)	> 25 µM

SMILES	inhibition at 50 µg/mL [1]	activity at 50 µg/mL [2]	EC50 [3]	Cytotoxicity at 50 μg/mL Pseudomonas [4]	EC50 [5]
Cc1cc(C(=O)Nc2ccc(-c3nc4ccc([N+](=O)[O-])cc4n3O)cc2)ccc1F [DD]		< 75%	10 to 25 µM	* (reduced P. aeruginosa cytotoxicity to 99-75% of untreated, wild type levels at 50 mg/mL)	10 to 25 µM
O=C(Nc1ccc(-c2nc3ncc([N+](=O)[O-])cc3n2O)cc1)c1ccc(F)cc1 [DI]		< 75%	10 to 25 µM	* (reduced P. aeruginosa cytotoxicity to 99-75% of untreated, wild type levels at 50 mg/mL)	10 to 25 µM
CCc1cc(-c2nc3ccc([N+](=O)[O-])cc3n2O)ccc1NC(=O)c1ccc(C(C)=O)cc1 [DL]		< 75%	10 to 25 µM	* (reduced P. aeruginosa cytotoxicity to 99-75% of untreated, wild type levels at 50 mg/mL)	10 to 25 µM
COc1cc(C(=O)Nc2ccc(-c3nc4ccc([N+](=O)[O-])cc4n3O)cc2)ccc1F [DM]		< 75%	10 to 25 µM	* (reduced P. aeruginosa cytotoxicity to 99-75% of untreated, wild type levels at 50 mg/mL)	10 to 25 µM
O=C(Nc1ccc(-c2nc3ccc([N+](=O)[O-])cc3n2O)cc1)c1ccccc1O [DN]		< 75%	10 to 25 µM	* (reduced P. aeruginosa cytotoxicity to 99-75% of untreated, wild type levels at 50 mg/mL)	10 to 25 µM
CC(=O)c1ccc(C(=O)Nc2ccc(-c3nc4ccc([N+](=O)[O-])cc4n3O)nc2)cc1 [DR]		< 75%	10 to 25 µM	* (reduced P. aeruginosa cytotoxicity to 99-75% of untreated, wild type levels at 50 mg/mL)	> 25 µM
O=C(Nc1ccc(-c2nc3ccc([N+](=O)[O-])cc3n2O)c(F)c1)c1ccc(F)cc1 [DS]		< 75%	10 to 25 µM	* (reduced P. aeruginosa cytotoxicity to 99-75% of untreated, wild type levels at 50 mg/mL)	10 to 25 µM
COc1cc(NC(=O)c2ccc(F)cc2)ccc1-c1nc2ccc([N+](=O)[O-])cc2n1O [DT]		< 75%	10 to 25 µM	* (reduced P. aeruginosa cytotoxicity to 99-75% of untreated, wild type levels at 50 mg/mL)	> 25 µM
O=C(Nc1ccc(-c2nc3ccc([N+](=O)[O-])cc3n2O)cn1)c1ccc(F)cc1 [DU]		< 75%	10 to 25 µM	* (reduced P. aeruginosa cytotoxicity to 99-75% of untreated, wild type levels at 50 mg/mL)	10 to 25 µM
O=C(/C=C/c1ccc(F)c(CP(=O)(O)O)c1)Nc1ccc(-c2nc3ccc([N+](=O)[O-])cc3n2O)cc1 [DX]		< 75%	10 to 25 µM	* (reduced P. aeruginosa cytotoxicity to 99-75% of untreated, wild type levels at 50 mg/mL)	10 to 25 µM
CCOP(=O)(COn1c(-c2ccc(NC(=O)/C=C/c3ccc(F)cc3)cc2)nc2ccc([N+](=O)[O-])cc21)OCC [ED, (2-{4-[(E)-3-(4-Fluoro-phenyl)-acrloylamino]-phenyl}-6-nitro-benzoimidazol-1-yloxymethyl)-phosphonic acid diethyl ester]		< 75%	< 10 µM	* (reduced P. aeruginosa cytotoxicity to 99-75% of untreated, wild type levels at 50 mg/mL)	> 25 µM
O=C(/C=C/c1ccc(F)cc1)Nc1ccc(-c2nc3ccc([N+](=O)[O-])cc3n2O)cc1F [EL, (E)-N-[2-Fluoro-4-(1-hydroxy-6-nitro-1H-benzoimidazol-2-yl)-phenyl]-3-(4-fluoro-phenyl)-acrylamide]		< 75%	10 to 25 µM	* (reduced P. aeruginosa cytotoxicity to 99-75% of untreated, wild type levels at 50 mg/mL)	10 to 25 µM
COc1cc(NC(=O)c2ccc(C(C)=O)cc2)ccc1-c1nc2ccc([N+](=O)[O-])cc2n1O [ES]		< 75%	10 to 25 µM	** (reduced P. aeruginosa cytotoxicity below 75% of untreated, wild type levels at 50 mg/mL)	> 25 µM
COc1cc(NC(=O)/C=C/c2ccc(F)cc2)ccc1-c1nc2ccc([N+](=O)[O-])cc2n1O [ET]		< 75%	10 to 25 µM	* (reduced P. aeruginosa cytotoxicity to 99-75% of untreated, wild type levels at 50 mg/mL)	10 to 25 µM
O=C(/C=C/c1ccc(-n2cncn2)cc1)Nc1ccc(-c2nc3ccc([N+](=O)[O-])cc3n2O)cc1 [EU, (E)-N-[4-(1-Hydroxy-6-nitro-1H-benzoimidazol-2-yl)-phenyl]-3-(4-[1,2,4]triazol-1-yl-phenyl)-acrylamide]		75 to 99%		** (reduced P. aeruginosa cytotoxicity below 75% of untreated, wild type levels at 50 mg/mL)	> 25 µM
CCOc1cc2nc(-c3ccc(NC(=O)/C=C/c4ccc(F)cc4)cc3)n(O)c2cc1[N+](=O)[O-] [EV, (E)-N-[4-(5-Ethoxy-1-hydroxy-6-nitro-1H-benzoimidazol-2-yl)-phenyl]-3-(4-fluoro-phenyl)-acrylamide]		75 to 99%		** (reduced P. aeruginosa cytotoxicity below 75% of untreated, wild type levels at 50 mg/mL)	10 to 25 µM
Cc1cc2nc(-c3ccc(NC(=O)c4ccc(-c5cnco5)cc4)cc3)n(O)c2cc1[N+](=O)[O-] [EX, N-[4-(1-Hydroxy-5-methyl-6-nitro-1H-benzoimidazol-2-yl)-phenyl]-4-oxazol-5-v-benzamide]		75 to 99%		** (reduced P. aeruginosa cytotoxicity below 75% of untreated, wild type levels at 50 mg/mL)	> 25 µM
O=C(Nc1ccc(-c2nc3ccc([N+](=O)[O-])cc3n2O)cc1)C1=Cc2ccccc2OC1 [EY]		< 75%	10 to 25 µM	* (reduced P. aeruginosa cytotoxicity to 99-75% of untreated, wild type levels at 50 mg/mL)	10 to 25 µM
CN(C)c1cc2nc(-c3ccc(NC(=O)/C=C/c4ccc(F)cc4)cc3)n(O)c2cc1[N+](=O)[O-] [EZ, N-[4-(5-Dimethylamino-1-hydroxy-6-nitro-1H-benzoimidazol-2-yl)-phenyl]-3-(4-fluorocinnamyl)-amide]		75 to 99%	10 to 25 µM	** (reduced P. aeruginosa cytotoxicity below 75% of untreated, wild type levels at 50 mg/mL)	> 25 µM
